Measurements published in patent US10538555B2, “Macrocyclic inhibitors of the PD-1/PD-L1 and CD80(B7-1)/PD-L1 protein/protein interactions” (BRISTOL-MYERS SQUIBB COMPANY, priority 2014, dated 2020).
Where a SMILES comes first, the peptide text is derived from it. Bridges are numbered along the chain shown (N, C = ends). [ ]: non-standard residue; d: D form. ξ: configuration not given here. Trp(1-CH2COOH) = N[C@@H](Cc1cn(CC(=O)O)c2ccccc12)C(=O)O; Phe(3,4,5-F3) = N[C@@H](Cc1cc(F)c(F)c(F)c1)C(=O)O; Phe(3,4-F2) = N[C@@H](Cc1ccc(F)c(F)c1)C(=O)O; Phe(4-F) = N[C@@H](Cc1ccc(F)cc1)C(=O)O; 2Nal = N[C@@H](Cc1ccc2ccccc2c1)C(=O)O; d(cisHyp) = O=C(O)[C@H]1C[C@@H](O)CN1; Bta = N[C@@H](Cc1csc2ccccc12)C(=O)O; NMeIle(3ξ) = CCC(C)[C@H](NC)C(=O)O; Hyp = O=C(O)[C@@H]1C[C@@H](O)CN1; NMeF = CN[C@@H](Cc1ccccc1)C(=O)O; dPip(4-aza) = O=C(O)[C@H]1CNCCN1; NMeE = CN[C@@H](CCC(=O)O)C(=O)O; dHyp = O=C(O)[C@H]1C[C@H](O)CN1; NMeNle = CCCC[C@H](NC)C(=O)O; NMeV = CN[C@H](C(=O)O)C(C)C; dPip = O=C(O)[C@H]1CCCCN1; hSer = N[C@@H](CCO)C(=O)O; NMeA = CN[C@@H](C)C(=O)O; Orn = NCCC[C@H](N)C(=O)O; dNMeA = CN[C@H](C)C(=O)O; Dab = NCC[C@H](N)C(=O)O; Dap = NC[C@H](N)C(=O)O; ξP = O=C(O)C1CCCN1; ξC = NC(CS)C(=O)O; Sar = CNCC(=O)O

Target: T1, Human PD-L1/PD-1 (Homo sapiens, UniProt Q9NZQ7)
T1 construct: TVMV protease cleavage site (C); made in house; host or cells: HEK293T cells
Test: HTRF Human PD-L1/PD-1 binding assay (PD-1-Ig/PD-L1-His)
Settings: PD-L1-His 10 nM, PD-1-Ig 20 nM; class symbol; read-out: HTRF Human PD-L1/PD-1 Binding Assay IC50 Range
How it was run: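 Soluble HEK293T-expressed proteins: hPD-L1-His 10 nM, hPD-1-Ig 20 nM final. Cpd + PD-L1 15 min, + PD-1 15 min, + Eu anti-Ig 1 nM/APC anti-His 20 nM 30 min. Buffer dPBS, 0.1% BSA, 0.05% Tween-20. TR-FRET 665/620.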

T1 sequence (Q9NZQ7 with tags, fused parts or gaps): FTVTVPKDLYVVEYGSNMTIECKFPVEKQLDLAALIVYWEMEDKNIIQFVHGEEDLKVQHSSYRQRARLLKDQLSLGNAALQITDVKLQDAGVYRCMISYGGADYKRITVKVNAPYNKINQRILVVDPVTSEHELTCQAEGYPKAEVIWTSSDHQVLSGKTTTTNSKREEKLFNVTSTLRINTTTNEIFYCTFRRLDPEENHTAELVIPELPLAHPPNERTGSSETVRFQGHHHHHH

IC50 [nM] | Structure (SMILES)
10 to 99.9 | CCCC[C@H]1C(=O)N(C)[C@@H](CCCC)C(=O)N[C@@H](CC(C)C)C(=O)N[C@H](C(N)=O)CSCC(=O)N[C@@H](Cc2ccc(O)cc2)C(=O)N(C)[C@@H](C)C(=O)N[C@@H](CC(N)=O)C(=O)N2CCC[C@H]2C(=O)N[C@@H](CN)C(=O)N[C@@H](CC(C)C)C(=O)N2C[C@H](O)C[C@H]2C(=O)N[C@@H](Cc2c[nH]c3ccccc23)C(=O)N[C@@H](CCN)C(=O)N[C@@H](Cc2cn(CC(=O)O)c3ccccc23)C(=O)N1C [Example 6310] ({CH2CO}-Y[NMeA]NP[Dap]L[Hyp]W[Dab][Trp(1-CH2COOH)][NMeNle][NMeNle]LC-NH2; thioether N-14)
1000 to 10000 | CCCC[C@H]1C(=O)N2CCC[C@@H]2C(=O)N[C@@H](CC(=O)O)C(=O)N[C@@H](C(C)C)C(=O)N(C)[C@@H](C(C)CC)C(=O)N[C@@H](CCC(N)=O)C(=O)N2CCCC[C@@H]2C(=O)N[C@@H](Cc2c[nH]c3ccccc23)C(=O)N[C@@H](Cc2ccc(O)cc2)C(=O)N[C@@H](CCCN)C(=O)N[C@H](C(=O)NCC(N)=O)CSCC(=O)N[C@@H](Cc2ccc(F)cc2)C(=O)N(C)[C@@H](Cc2ccccc2)C(=O)N1C (stereo partly drawn) [Example 9263] ({CH2CO}-[Phe(4-F)][NMeF][NMeNle][dP]DV[NMeIle(3ξ)]Q[dPip]WY[Orn]CG-NH2; thioether N-13)
1 to 9.9 | CCCC[C@H]1C(=O)N2CCNC[C@@H]2C(=O)N[C@@H](CC(=O)O)C(=O)N[C@@H](C(C)C)C(=O)N(C)[C@@H](Cc2ccccc2)C(=O)N[C@@H](CCC(=O)O)C(=O)N2C[C@H](O)C[C@@H]2C(=O)N[C@@H](Cc2c[nH]c3ccccc23)C(=O)N[C@@H](Cc2ccc(O)cc2)C(=O)N[C@@H](CC(C)C)C(=O)N[C@H](C(=O)NCC(N)=O)CSCC(=O)N[C@@H](Cc2cc(F)c(F)c(F)c2)C(=O)N(C)[C@@H](Cc2ccccc2)C(=O)N1C [Example 10167] ({CH2CO}-[Phe(3,4,5-F3)][NMeF][NMeNle][dPip(4-aza)]DV[NMeF]E[d(cisHyp)]WYLCG-NH2; thioether N-13)
1 to 9.9 | CCCC[C@H]1C(=O)N(C)[C@@H](CCCC)C(=O)N[C@@H](CCC(=O)O)C(=O)N[C@H](C(=O)NCC(N)=O)CSCC(=O)N[C@@H](Cc2ccc(O)cc2)C(=O)N(C)[C@@H](C)C(=O)N[C@@H](CC(N)=O)C(=O)N2CCCC2C(=O)N[C@@H](CN)C(=O)N[C@@H](CC(C)C)C(=O)N2C[C@H](O)C[C@H]2C(=O)N[C@@H](Cc2c[nH]c3ccccc23)C(=O)N[C@@H](CCN)C(=O)N[C@@H](Cc2cn(CC(=O)O)c3ccccc23)C(=O)N1C (stereo partly drawn) [Example 6344] ({CH2CO}-Y[NMeA]N[ξP][Dap]L[Hyp]W[Dab][Trp(1-CH2COOH)][NMeNle][NMeNle]ECG-NH2; thioether N-14)
1000 to 10000 | CCCC[C@H]1C(=O)N[C@@H](CC(N)=O)C(=O)N2CCC[C@H]2C(=O)N[C@@H](CO)C(=O)N[C@@H](CCO)C(=O)N2CCC[C@H]2C(=O)N[C@@H](Cc2c[nH]c3ccccc23)C(=O)N[C@@H](CCCN)C(=O)N[C@@H](Cc2c[nH]c3ccccc23)C(=O)N(C)[C@@H](C)C(=O)N(C)[C@@H](C)C(=O)N[C@@H](CCCNC(=N)N)C(=O)NC(C(=O)NCC(N)=O)CSCC(=O)N[C@@H](Cc2ccc(O)cc2)C(=O)N1C (stereo partly drawn) [Example 10198] ({CH2CO}-Y[NMeNle]NPS[hSer]PW[Orn]W[NMeA][NMeA]R[ξC]G-NH2; thioether N-14)
10 to 99.9 | CCCC[C@H]1C(=O)N2C[C@H](O)C[C@@H]2C(=O)N[C@@H](CC(=O)O)C(=O)N[C@@H](C(C)C)C(=O)N(C)[C@@H](Cc2ccccc2)C(=O)N[C@@H](CCC(=O)O)C(=O)N2C[C@H](O)C[C@@H]2C(=O)N[C@@H](Cc2c[nH]c3ccccc23)C(=O)N[C@@H](Cc2ccc(O)cc2)C(=O)N[C@@H](CCN)C(=O)N[C@H](C(=O)NCC(N)=O)CSCC(=O)N[C@@H](Cc2cc(F)c(F)c(F)c2)C(=O)N(C)[C@@H](Cc2ccccc2)C(=O)N1C [Example 9333] ({CH2CO}-[Phe(3,4,5-F3)][NMeF][NMeNle][d(cisHyp)]DV[NMeF]E[d(cisHyp)]WY[Dab]CG-NH2; thioether N-13)
1 to 9.9 | CCCC[C@H]1C(=O)N2CCC[C@@H]2C(=O)N[C@@H](CO)C(=O)N[C@@H](C(C)C)C(=O)N(C)[C@@H](Cc2ccccc2)C(=O)N[C@@H](Cc2ccc(O)cc2)C(=O)N2CCC[C@@H]2C(=O)N[C@@H](Cc2c[nH]c3ccccc23)C(=O)N[C@@H](Cc2ccc(O)cc2)C(=O)N[C@@H](CC(C)C)C(=O)N[C@H](C(=O)NCC(N)=O)CSCC(=O)N[C@@H](Cc2ccccc2)C(=O)N(C)[C@@H](Cc2ccccc2)C(=O)N1C [Example 10067] ({CH2CO}-F[NMeF][NMeNle][dP]SV[NMeF]Y[dP]WYLCG-NH2; thioether N-13)
1000 to 10000 | CCCC[C@H]1C(=O)N(C)CC(=O)N[C@@H](CC(=O)O)C(=O)N[C@@H](C(C)C)C(=O)N(C)[C@@H](Cc2ccccc2)C(=O)N[C@@H](Cc2ccc(O)cc2)C(=O)N(C)CC(=O)N[C@@H](Cc2c[nH]c3ccccc23)C(=O)N[C@@H](Cc2ccc(O)cc2)C(=O)N[C@@H](CC(C)C)C(=O)N[C@H](C(=O)NCC(N)=O)CSCC(=O)N[C@@H](Cc2ccc3ccccc3c2)C(=O)N(C)[C@@H](Cc2ccccc2)C(=O)N1C [Example 3233] ({CH2CO}-[2Nal][NMeF][NMeNle][Sar]DV[NMeF]Y[Sar]WYLCG-NH2; thioether N-13)
100 to 990 | CCCC[C@H]1C(=O)N(C)[C@@H](CCCC)C(=O)N[C@@H](CCC(=O)O)C(=O)N[C@H](C(=O)NCC(N)=O)CSCC(=O)N[C@@H](Cc2ccc(OC)cc2)C(=O)N(C)[C@@H](C)C(=O)N[C@@H](CC(N)=O)C(=O)N2CCC[C@H]2C(=O)N[C@@H](Cc2cnc[nH]2)C(=O)N[C@@H](CCCCN)C(=O)N2C[C@H](O)C[C@H]2C(=O)N[C@@H](Cc2c[nH]c3ccccc23)C(=O)N[C@@H](CC(=O)O)C(=O)N[C@@H](Cc2c[nH]c3ccccc23)C(=O)N1C [Example 7115] ({CH2CO}-Y(Me)[NMeA]NPHK[Hyp]WDW[NMeNle][NMeNle]ECG-NH2; thioether N-14)
10 to 99.9 | CC(C)C[C@@H]1NC(=O)[C@H](Cc2ccc(O)cc2)NC(=O)[C@H](Cc2c[nH]c3ccccc23)NC(=O)[C@@H](C)N(C)C(=O)[C@H](Cc2ccc(O)cc2)NC(=O)[C@H](Cc2ccccc2)N(C)C(=O)[C@H](C(C)C)NC(=O)[C@H](CCC(N)=O)NC(=O)[C@@H](C)N(C)C(=O)[C@H](C)N(C)C(=O)[C@H](Cc2ccccc2)N(C)C(=O)[C@H](Cc2cc(F)c(F)c(F)c2)NC(=O)CSC[C@@H](C(=O)NCC(N)=O)NC1=O [Example 9191] ({CH2CO}-[Phe(3,4,5-F3)][NMeF][NMeA][dNMeA]QV[NMeF]Y[dNMeA]WYLCG-NH2; thioether N-13)
10 to 99.9 | CCCC[C@H]1C(=O)N(C)[C@@H](CCC(=O)O)C(=O)N[C@@H](CN)C(=O)N[C@H](C(=O)NCC(N)=O)CSCC(=O)N[C@@H](Cc2ccc(O)cc2)C(=O)N(C)[C@@H](C)C(=O)N[C@@H](CC(N)=O)C(=O)N2CCC[C@H]2C(=O)N[C@@H](Cc2c[nH]cn2)C(=O)N[C@@H](CCC(=O)O)C(=O)N2C[C@H](O)C[C@H]2C(=O)N[C@@H](Cc2c[nH]c3ccccc23)C(=O)N[C@@H](CCN)C(=O)N[C@@H](Cc2c[nH]c3ccccc23)C(=O)N1C [Example 5249] ({CH2CO}-Y[NMeA]NPHE[Hyp]W[Dab]W[NMeNle][NMeE][Dap]CG-NH2; thioether N-14)
1000 to 10000 | CCCC[C@H]1C(=O)N2CCC[C@@H]2C(=O)N[C@@H](CC(=O)O)C(=O)N[C@@H](C(C)C)C(=O)N(C)[C@@H](C(C)C)C(=O)N[C@@H](CCC(N)=O)C(=O)N2CCCC[C@@H]2C(=O)N[C@@H](Cc2c[nH]c3ccccc23)C(=O)N[C@@H](Cc2ccc(O)cc2)C(=O)N[C@@H](CC(C)C)C(=O)N[C@H](C(=O)NCC(N)=O)CSCC(=O)N[C@@H](Cc2ccc(F)cc2)C(=O)N(C)[C@@H](Cc2ccccc2)C(=O)N1C [Example 9246] ({CH2CO}-[Phe(4-F)][NMeF][NMeNle][dP]DV[NMeV]Q[dPip]WYLCG-NH2; thioether N-13)
1 to 9.9 | CCCC[C@H]1C(=O)N2C[C@@H](O)C[C@@H]2C(=O)N[C@@H](CC(=O)O)C(=O)N[C@@H](C(C)C)C(=O)N(C)[C@@H](Cc2ccccc2)C(=O)N[C@@H](CCC(=O)O)C(=O)N2CCCC[C@@H]2C(=O)N[C@@H](Cc2cn(CC(=O)O)c3ccccc23)C(=O)N[C@@H](Cc2ccc(O)cc2)C(=O)N[C@@H](CC(C)C)C(=O)N[C@H](C(=O)NCC(N)=O)CSCC(=O)N[C@@H](Cc2cc(F)c(F)c(F)c2)C(=O)N(C)[C@@H](Cc2ccccc2)C(=O)N1C [Example 10586] ({CH2CO}-[Phe(3,4,5-F3)][NMeF][NMeNle][dHyp]DV[NMeF]E[dPip][Trp(1-CH2COOH)]YLCG-NH2; thioether N-13)
10 to 99.9 | CCCC[C@H]1C(=O)N2C[C@H](O)C[C@@H]2C(=O)N[C@@H](CC(=O)O)C(=O)N[C@@H](C(C)C)C(=O)N(C)[C@@H](Cc2ccccc2)C(=O)N[C@@H](CCC(=O)O)C(=O)N2C[C@H](O)C[C@@H]2C(=O)N[C@@H](Cc2c[nH]c3ccccc23)C(=O)N[C@@H](Cc2ccc(O)cc2)C(=O)N[C@@H](CCC(=O)O)C(=O)N[C@H](C(=O)NCC(N)=O)CSCC(=O)N[C@@H](Cc2ccc(F)c(F)c2)C(=O)N(C)[C@@H](Cc2ccccc2)C(=O)N1C [Example 9312] ({CH2CO}-[Phe(3,4-F2)][NMeF][NMeNle][d(cisHyp)]DV[NMeF]E[d(cisHyp)]WYECG-NH2; thioether N-13)
10 to 99.9 | CCCC[C@H]1C(=O)N(C)[C@@H](C)C(=O)N[C@@H](CCCNC(=N)N)C(=O)NC(C(=O)N[C@@H](CO)C(N)=O)CSCC(=O)N[C@@H](Cc2ccc(O)cc2)C(=O)N(C)[C@@H](C)C(=O)N[C@@H](CC(N)=O)C(=O)N2CCC[C@H]2C(=O)N[C@@H](CO)C(=O)N[C@H](CC(C)C)C(=O)N2C[C@H](O)C[C@H]2C(=O)N[C@@H](Cc2c[nH]c3ccccc23)C(=O)N[C@@H](CO)C(=O)N[C@@H](Cc2csc3ccccc23)C(=O)N1C (stereo partly drawn) [Example 9124] ({CH2CO}-Y[NMeA]NPS[dL][Hyp]WS[Bta][NMeNle][NMeA]R[ξC]S-NH2; thioether N-14)
